This note sets out measurements from patent publication US20070149487A1, “Antiviral Compositions and Methods” (priority 2005, published 2007).

In data set [1] the test system is human SARS-CoV Toronto-2 strain. In kind it is cell-based.
In data set [2] the test system is Vero E6 cells.

In the case of `NC(c1cc(C(F)(F)F)cc(C(F)(F)F)c1)c1cc(C(F)(F)F)cc(C(F)(F)F)c1` [CS03], in data set [1], the EC50 is more than 100 µM and the “Average Inhibition (%) at 32 μM” value came out at 0%. In data set [2], the CC50 was more than 100 µM.
In the case of `CN1CCC(c2nc(-c3ccc(Cl)cc3)cc(C(F)(F)F)n2)CC1` [CS06], in data set [1], the EC50 was more than 100 µM and the “Average Inhibition (%) at 32 μM” value is 0%. In data set [2], this compound showed a CC50 of 95 µM.
In the same order, the values of `CN1CCc2c(sc3c2C(=O)NC(c2ccc(O)c(O)c2)N3)C1` (stereo not shown) [CS01] are more than 100 µM, 0% and more than 100 µM.
In the same order, the values of `CC(=O)Nc1ccc2c(c1)[C@H]1C=CC[C@@H]1[C@H](c1ccc([N+](=O)[O-])cc1)N2` [CS08] are more than 100 µM, 17% and more than 100 µM.
In the same order, the values of `N=C1C(=Cc2ccc3c(c2)OCO3)C(=O)C=C2SC(C(F)(F)F)=NN12` [CS10] are more than 100 µM, 14% and 67 µM.
On to `O=C(O)c1ccc(N=Cc2c(O)ccc3oc4c(c23)CCCC4)cc1` [CS11], for which, in data set [1], it took 23 µM to reach a half-maximal effect (EC50) and the “Average Inhibition (%) at 32 μM” value is listed as 66%. In addition, in data set [2], the CC50 turned out to be 76 µM. Moreover, the “toxicity to normal cells in cell viability assays” value in data set [2] (at 23 μM) is given as “not toxic”.
`O=C(NN=C1C(=O)Nc2ccccc21)NC1CCS(=O)(=O)C1` (racemic) [CS07]: in data set [1], the EC50 was more than 100 µM and the “Average Inhibition (%) at 32 μM” value is 1%. In data set [2], this compound came in with a CC50 of more than 100 µM.
For the compound `O=C(O)c1ccc(C2Nc3c(Cl)cc(Cl)c(Cl)c3C3C=CCC32)cc1` (stereo not shown) [CS09], in data set [1], the EC50 was more than 100 µM and the “Average Inhibition (%) at 32 μM” value was found to be 13%. Further, the CC50 in data set [2] was 85 µM.
In the same order, the values of `CS(=O)(=O)c1ccc2c(c1)nc(C(F)(F)F)n2C1CCNCC1` [CS02] are more than 100 µM, 0% and more than 100 µM.
In the same order, the values of `Cc1ccc([N+](=O)[O-])cc1N1C(=O)c2ccc(C(=O)O)cc2C1=O` [CS12] are more than 100 µM, 13% and more than 100 µM.
In the same order, the values of `CCN1C(=O)c2cccc3c(NC(=O)c4ccc([N+](=O)[O-])s4)ccc1c23` [CS05] are more than 100 µM, 0% and 10 µM.
For `CC(=O)Nc1ccc(N2C(=O)CC(N3CC(C)OC(C)C3)C2=O)cc1` (stereo not shown) [CS04], in data set [1], the concentration giving a half-maximal response (EC50) is more than 100 µM and the “Average Inhibition (%) at 32 μM” value is reported as 4%. The CC50 in data set [2] is more than 100 µM.
